Assay results as given in patent publication US10981932B2, “Macrocyclic indole derivatives” (Bayer Aktiengesellschaft, priority 2016, dated 2021).
Counter-ions that a name gives are not always drawn. Like-named read-outs stand apart in the source and are kept apart here.

Legend:
[1] = tested on: SUDHL10; assay: Anti-proliferative effect (CellTiter-Glo, 72 h), SUDHL10; type: cell-based; settings: SUDHL10 cells, antiproliferation, median, read-out: Antiproli SUDHL10 [M] (median)
How it was run: (§1)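 Luminescence from CellTiter-Glo, read 10 min after reagent addition, reports viable cell content after 72 h of compound treatment at 37 °C. A reference plate read at day 0 gives the starting baseline.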

[2] = tested on: SUDHL5; assay: Induction of cytotoxicity (CellTiter-Glo, 5 h), SUDHL5
[3] = tested on: SUDHL5; assay: Anti-proliferative effect (CellTiter-Glo, 72 h), SUDHL5; type: cell-based; settings: SUDHL5 cells, antiproliferation, median, read-out: Antiproli SUDHL5 [M] (median)
How it was run: as §1

[4] = tested on: SUDHL5; assay: Induction of caspase-3/7 activity (Caspase-Glo 3/7), SUDHL5; type: cell-based; settings: caspase-3/7 induction, SUDHL5 cells, 3 h treatment, median
How it was run: (§2)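 Apoptosis induction measured as caspase-3/7 activity (Caspase-Glo 3/7) in DLBCL lines after 3 h treatment at 37 °C; EC50 derived relative to the reference compound's maximal induction, with C0 fixed at 1.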

[5] = tested on: A2780; assay: Anti-proliferative effect (CellTiter-Glo, 72 h), A2780; type: cell-based; settings: A2780 cells, median, read-out: IC50 antiproliferation assay A2780 [M] (median)
How it was run: as §1

[6] = tested on: SUDHL10; assay: Induction of cytotoxicity (CellTiter-Glo, 5 h), SUDHL10
Procedure: Therefore, cytotoxicity assays were run in parallel in SUDHL5 and SUDHL10 cells.
The different cell lines were plated in culture medium (RPMI 1640 [GIBCO #22400-089]supplemented with 10% Fetal Bovine Serum) at a density of 3.300 cells in 30 μl/well in a sterile, solid black, flat bottom, polystyrene, TC-treated 384-well microplate (Corning #3571) using Multidrop Combi Reagent Dispenser. As a control, medium without cells was also added to the plate. Cells were incubated in a humidified incubator at 37° C. overnight. On the next day, the cells were treated with compounds (stock solution, 10 mM in DMSO) using the HP D300 Digital Dispenser in a concentration range of 3.3×10e-5 M (33 μM) to 5×10e-9 M (5 nM) in a single-dot curve with at least 16 dilutions and a DMSO concentration of 0.33%. Rim wells were excluded. The cells were incubated for 5 h hours in a humidified incubator at 37° C. After this incubation, 30 μl of CellTiter-Glo@ Luminescent Cell Viability reagent (Promega, G7573) was added to each well using the Multidrop Combi Reagent Dispenser, followed by 15 min incubation on a shaker at room temperature. Finally, luminescence was read at 0.1 ms, with a gain of 3000 using the PHERAstar FS microplate reader (BMG Labtech).
The Bella DRC Master Sheet was used to calculate IC50s, with fixed CI=0 and C0=1.

[7] = tested on: SUDHL10; assay: Induction of caspase-3/7 activity (Caspase-Glo 3/7), SUDHL10; type: cell-based; settings: caspase-3/7 induction, SUDHL10 cells, 3 h treatment, median
How it was run: as §2

[8] = target: MCL-1 (Homo sapiens, UniProt Q07820); assay: Protein-protein interaction assay MCL-1/Noxa BH3 peptide (MCL-1 assay), TR-FRET; type: binding; settings: MBP-MCL-1 / Noxa BH3-derived peptide, median
Chain of MCL-1 (Q07820 whole entry): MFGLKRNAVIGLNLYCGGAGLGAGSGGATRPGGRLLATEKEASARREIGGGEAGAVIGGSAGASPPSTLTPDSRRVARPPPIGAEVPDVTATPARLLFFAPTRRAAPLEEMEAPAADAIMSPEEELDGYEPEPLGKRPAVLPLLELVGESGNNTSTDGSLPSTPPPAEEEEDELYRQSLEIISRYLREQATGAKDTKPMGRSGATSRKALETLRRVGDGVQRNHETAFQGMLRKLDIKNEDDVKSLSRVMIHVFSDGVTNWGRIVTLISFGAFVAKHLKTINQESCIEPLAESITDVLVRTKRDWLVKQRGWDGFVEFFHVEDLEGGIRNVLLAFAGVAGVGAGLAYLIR
How it was run: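 Inhibition values were normalized between DMSO controls with all reagents and controls lacking MCL-1. The binding competition used 1 nM MBP-MCL-1 in pH 7 Tris buffer containing 50 mM KF and 100 mM NaCl, with a 10 min compound preincubation at 22 °C.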

[9] = Homo sapiens, SU-DHL10, 72 h, 72 h incubation
[10] = read-out: Cytotox SUDHL5 [M] (median), SUDHL5 cells, cytotoxicity induction, CellTiter-Glo, 5 h incubation, median
[11] = Homo sapiens, SU-DHL-5, 72 h, 72 h incubation
[12] = read-out: Cytotox SUDHL10 [M] (median), SUDHL10 cells, cytotoxicity induction, CellTiter-Glo, 5 h incubation, median
[13] = Homo sapiens, SU-DHL-5, 5 h, read-out: Cytotox SUDHL5 [M] (median), SUDHL5 cells, cytotoxicity induction, CellTiter-Glo, 5 h incubation, median
[14] = Homo sapiens, SU-DHL10, 5 h, read-out: Cytotox SUDHL10 [M] (median), SUDHL10 cells, cytotoxicity induction, CellTiter-Glo, 5 h incubation, median
[15] = Homo sapiens, SU-DHL10, 72 h, 72 h
[16] = Homo sapiens, SU-DHL-5, 5 h, read-out: Cytotox SUDHL5 [M] (median), SUDHL5 cells, cytotoxicity induction, CellTiter-Glo, 5 h, median
[17] = Homo sapiens, SU-DHL-5, 72 h, 72 h
[18] = Homo sapiens, SU-DHL10, 5 h, read-out: Cytotox SUDHL10 [M] (median), SUDHL10 cells, cytotoxicity induction, CellTiter-Glo, 5 h, median

Row | SMILES | IC50 [1, 9] | IC50 [3, 11] | EC50 [4] | IC50 ([5]; Homo sapiens, A2780, 72 h) | EC50 [7] | IC50 [8] | IC50 ([1]; 72 h incubation) | IC50 ([3]; 72 h incubation) | IC50 [5] | EC50 ([4]; Homo sapiens, SU-DHL-5, 3 h) | EC50 ([7]; Homo sapiens, SU-DHL10, 3 h) | IC50 [1, 15] | IC50 [3, 17] | IC50 [2, 10] | IC50 [6, 12] | IC50 [2, 13] | IC50 [6, 14] | IC50 [2, 16] | IC50 [6, 18]
1 | CCc1c2c(nn1C)CN(C)CCCn1c(C(=O)O)c(CCCOc3cccc4ccccc34)c3cccc-2c31 (single isomer, unassigned; enantiomer 1) [Example 142, 11-Ethyl-7,10-dimethyl-1-[3-(1-naphthyloxy)propyl]-4,5,6,7,8,10-hexahydropyrazolo[3′,4′:7,8][1,5]diazecino[9,10,1-hi]indole-2-carboxylic acid-N-ethylethanamine Salt (Enantiomer 1)] | 1.89e-05 M | 8.25e-06 M | 4.73 µM | 2.25e-05 M | 12.5 µM | 0.00523 µM |  |  |  |  |  |  |  | 6.07e-06 M | 1.34e-05 M |  |  |  | 
2 | CCc1c2c(nn1C)CN(C)CCCn1c(C(=O)O)c(CCCOc3cccc4ccccc34)c3ccc(C)c-2c31 (single isomer, unassigned; enantiomer 2) [Example 146, 11-Ethyl-7,10,12-trimethyl-1-[3-(1-naphthyloxy)propyl]-4,5,6,7,8,10-hexahydropyrazolo[3′,4′:7,8][1,5]diazecino[9,10,1-hi]indole-2-carboxylic acid-N-ethylethanamine Salt (Enantiomer 2)] |  |  | > 33 µM |  | > 33 µM | 0.00901 µM | 1.05e-05 M | 1.93e-05 M | 1.37e-05 M |  |  |  |  | 1.66e-05 M | 2.67e-05 M |  |  |  | 
3 | Cc1ccc2c(C(C)CCOc3cccc4ccccc34)c(C(=O)O)n3c2c1-c1c(C)nn(C)c1COCCCC3 (racemic) [Example 256, 1,3,4-trimethyl-7-[4-(naphthalen-1-yloxy)butan-2-yl]-1,10,11,12,13,15-hexahydropyrazolo[4′,3′:9,10][1,6]oxazacycloundecino[8,7,6-hi]indole-8-carboxylic Acid] | 9.2e-06 M | 1.5e-05 M |  | 2.03e-05 M |  | 0.0425 µM |  |  |  | > 33 µM | > 33 µM |  |  |  |  | 2.29e-05 M | > 3.3e-05 M |  | 
4 | CCc1nn(C)c2c1-c1c(C)ccc3c(CCCOc4cc(C)c(Cl)c(C)c4)c(C(=O)O)n(c13)CCCCOC2 (racemic) [Example 269, (rac)-1(3-(4-chloro-3,5-dimethylphenoxy)propyl)-12-ethyl-10,13-dimethyl-4,5,6,7,9,10-hexahydropyrazolo[4′,3′:9,10][1]oxa[6]azacycloundecino[8,7,6-hi]indole-2-carboxylic Acid] | 7.27e-06 M | 2.26e-06 M |  | 2.93e-05 M |  | 0.00774 µM |  |  |  | 4.83 µM | 13.2 µM |  |  |  |  | 4.98e-06 M | 1.47e-05 M |  | 
5 | Cn1nc(COCc2ccc(C(N)=O)cc2)c2c1COCCCCn1c(C(=O)O)c(CCCOc3cccc4ccccc34)c3cccc-2c31 (racemic) [Example 346, (rac)-3-{[(4-carbamoylbenzyl)oxy]methyl}-1-methyl-7-[3-(naphthalen-1-yloxy)propyl]-1,10,11,12,13,15-hexahydropyrazolo[4′,3′:9,10][1,6]oxazacycloundecino[8,7,6-hi]indole-8-carboxylic Acid] |  |  |  | 2.32e-05 M |  | 0.0142 µM |  |  |  | 25.1 µM | 32.4 µM | 3.54e-06 M | 9.09e-06 M |  |  |  |  | 2.02e-05 M | > 3.3e-05 M
6 | CN1CCCn2c(C(=O)O)c(CCCOc3cccc4ccccc34)c3cccc(c32)-c2c(nn3c2OCCC3)C1 (racemic) [Example 360, (rac)-7-methyl-1-[3-(naphthalen-1-yloxy)propyl]-5,6,7,8,12,13-hexahydro-4H,11H-[1,3]oxazino[3″,2″:1′,5′]pyrazolo[3′,4′:7,8][1,5]diazecino[9,10,1-hi]indole-2-carboxylic Acid] |  |  |  | > 3.3e-05 M |  | 0.0198 µM |  |  |  | 32.6 µM | > 33 µM | 1.44e-05 M | 2.12e-05 M |  |  |  |  | > 3.3e-05 M | > 3.3e-05 M

The next lines start with results.

Row | IC50 [1, 9] | IC50 [3, 11] | EC50 [4] | IC50 ([5]; Homo sapiens, A2780, 72 h) | EC50 [7] | IC50 [8] | IC50 ([1]; 72 h incubation) | IC50 ([3]; 72 h incubation) | IC50 [5] | EC50 ([4]; Homo sapiens, SU-DHL-5, 3 h) | EC50 ([7]; Homo sapiens, SU-DHL10, 3 h) | IC50 [1, 15] | IC50 [3, 17] | SMILES | IC50 [2, 10] | IC50 [6, 12] | IC50 [2, 13] | IC50 [6, 14] | IC50 [2, 16] | IC50 [6, 18]
7 | 1.98e-05 M | 3.15e-05 M |  | 3.04e-05 M |  | 0.0139 µM |  |  |  | 30.1 µM | 31.6 µM |  |  | Cn1nc2c(c1OC(F)F)-c1cccc3c(CCCOc4cccc5ccccc45)c(C(=O)O)n(c13)CCCCOC2 (racemic) [Example 234, (rac)-3-(difluoromethoxy)-2-methyl-7-[3-(naphthalen-1-yloxy)propyl]-2,10,11,12,13,15-hexahydropyrazolo[4′,3′:9,10][1,6]oxazacycloundecino[8,7,6-hi]indole-8-carboxylic Acid] |  |  | 2.71e-05 M | > 3.3e-05 M |  | 
8 |  |  | > 33 µM |  | > 33 µM | 0.122 µM | 6.02e-06 M | 1.91e-05 M | 1.75e-05 M |  |  |  |  | Cn1nc(CN2CC(F)(F)C2)c2c1COCCCCn1c(C(=O)O)c(CCCOc3cccc4ccccc34)c3cccc-2c31 (single isomer, unassigned; enantiomer 2) [Example 182, 3-[(3,3-difluoroazetidin-1-yl)methyl]-1-methyl-7-[3-(naphthalen-1-yloxy)propyl]-1,10,11,12,13,15-hexahydropyrazolo[4′,3′:9,10][1,6]oxazacycloundecino[8,7,6-hi]indole-8-carboxylic acid-N-ethylethanamine Salt (Enantiomer 2)] | > 3.3e-05 M | > 3.3e-05 M |  |  |  | 
9 |  |  | > 33 µM |  | > 33 µM | 0.22 µM | 1.38e-05 M | 1.82e-05 M | 2.01e-05 M |  |  |  |  | Cc1ccc2c(CCCOc3cccc4ccccc34)c(C(=O)O)n3c2c1-c1c(C)nn(C)c1COCCCC3 (single isomer, unassigned; enantiomer 2) [Example 029, 1,3,4-trimethyl-7-[3-(naphthalen-1-yloxy)propyl]-1,10,11,12,13,15-hexahydropyrazolo[4′,3′:9,10][1,6]oxazacycloundecino[8,7,6-hi]indole-8-carboxylic acid-N-ethylethanamine Salt (Enantiomer 2)] | > 3.3e-05 M | > 3.3e-05 M |  |  |  | 
10 | 9.7e-06 M | 9.3e-06 M |  | 2.29e-05 M |  | 0.00788 µM |  |  | > 3.3e-05 M | 10.9 µM | 22 µM |  |  | O=C(O)c1c(CCCOc2cccc3ccccc23)c2cccc3c2n1CCCCOCc1nn2c(c1-3)COCC2 (racemic) [Example 250, (rac)-1-[3-(naphthalen-1-yloxy)propyl]-4,5,6,7,12,13-hexahydro-9H,15H-[1,4]oxazino[4″,3″:1′,5′]pyrazolo[4′,3′:9,10][1,6]oxazacycloundecino[8,7,6-hi]indole-2-carboxylic Acid] |  |  | 1.33e-05 M | 2.18e-05 M |  | 
11 |  |  |  | > 3.3e-05 M |  | 0.0219 µM |  |  |  | 21.1 µM | > 33 µM | > 3.3e-05 M | 4.71e-06 M | CC(=O)NCc1nn(C)c2c1-c1cccc3c(CCCOc4cccc5ccccc45)c(C(=O)O)n(c13)CCCCOC2 (single isomer, unassigned; enantiomer 1) [Example 340, 3-[(acetylamino)methyl]-1-methyl-7-[3-(naphthalen-1-yloxy)propyl]-1,10,11,12,13,15-hexahydropyrazolo[4′3′:9,10][1,6]oxazacycloundecino[8,7,6-hi]indole-carboxylic Acid (Enantiomer 1)] |  |  |  |  | 1.56e-05 M | > 3.3e-05 M
